The target in assay [1] is NMDA receptor (N-methyl-D-aspartate-specific L-[^3 H]glutamate recognition site in synaptic plasma membranes). Description: NMDA-Selective Glutamate Binding Assay ([^3 H]GLU). As for the experimental part:
(§1) Synaptic plasma membranes (SPM) were prepared as previously described [Monahan, J.B. and Michel, J., "Identification and Characterization of an N-methyl-D-aspartate-specific L[^3 H]glutamate Recognition Site in Synaptic Plasma Membranes, J. Neurochem., 48, […] (1987)]. The SPM were stored at a concentration of 10-15 mg/ml in 0.32M sucrose, 0.5 mM EDTA, 1 mM MgSO4, 5 mM Tris/SO4, pH 7.4, under liquid nitrogen. The identity and purity of the subcellular fractions were confirmed by both electron microscopy and marker enzymes. Protein concentrations were determined by using a modification of the method of Lowry [Ohnishi, S.T. and Barr, J.K., "A Simplified Method of Quantitating Proteins Using the Biuret and Phenol Reagents", anal. Biochem., 86, 193-197 (1978)]. The SPM were treated identically for the [^3 H]AMPA (QUIS), [3H]kainate and sodium-dependent L-[^3 H]-glumatate binding assays. […] Beckman MP scintillation cocktail containing 7 mL/1 acetic acid was then added and the samples counted on a Beckman LS 5800 or 3801 liquid scintillation counter with automatic corrections for quenching and counting efficiency. […] Radioligand binding to the synaptic plasma membranes was analyzed using Scatchard and Hill transformations and the Ki values of the compounds determined using logit-log transformations. […]

Another assay has as its target Kainate (KA) receptor. Description: [^3 H]kainate (KA) receptor subclass binding assay, synaptic plasma membranes. To be noted: 0.5 nM [^3 H]kainate; SPM; pH 7.4; 0-4° C., 60 min. How it is done: as §1
Assay [2] addresses [^3 H]MK-801 binding, rat SPM (synaptic plasma membranes). Nature of the assay: [^3 H]MK-801 Binding assay (modulation of [^3 H]MK-801 binding). To be noted: 5.0 nM [^3 H]MK-801, L-glutamate 10.0 nM; Triton X-100 treated rat SPM; pH 7.4; 25° C., 30 min. How it is done: Modulation of [^3 H]MK-801 binding was performed using Triton X-100 (0.04% v/v) treated rat SPM that had been extensively washed. Assay incubations were at 25° C. for 30 min. and contained 5.0 nM [^3 H]MK-801, L-glutamate (10.0 nM), and various concentrations of the tested compounds in 50 mM Tris/acetate, pH 7.4. The assay was stopped by rapid filtration, using Brandel MB-48 Harvester, through Whatman GF/B filters treated with 0.05% polyethylenimine and the samples washed four times with 2.0 mL cold buffer. The radioactivity associated with the filter was determined by liquid scintillation spectrometry. Nonspecific binding was defined using 60 μM MK-801. IC50 were determined using a logit-log transformation of the binding data.

As usually defined, the Ki is a dissociation constant, usually derived from enzyme kinetics or from competition with a known ligand.

Counter-ions that a name gives are not always drawn.

Regarding `O=C(O)c1cn2c(n1)NCCC2CP(=O)(O)O` (stereo not shown) [Example 1, 5-Phosphonomethyl-5,6,7,8-tetrahydro-imidazo [1,2-a]pyrimidine-2-carboxylic acid, ammonium salt], the Ki in assay [1] (NMDA-specific L-[^3 H]glutamate 12.5 nM, Triton X-100 treated SPM, pH 7.4, 0-4° C., 10 min) turned out to be 700 nM; in assay [2], 280 nM. Moreover, the “KA Ki” value on Kainate (KA) receptor is over 10000 nM.

On to `O=C(O)c1cn2c(n1)NC(CP(=O)(O)O)CC2` (stereo not shown) [Example 2, 7-phosphonomethyl-5,6,7,8-tetrahydro-imidazo[1,2-a]pyrimidine-2-carboxylicacid], for which the “[^3 H]GLU % inhibition” value in assay [1] (@ 10 μM) was 42%.
